Source: ChEMBL document CHEMBL1687752, “Impact of antifungal prophylaxis on colonization and azole susceptibility of Candida species” (2009)
≈ marks a conversion by molar mass, not a printed value.

Experiments:
Assay type in all cases: functional
Nakaseomyces glabratus [1] = experiment: Antifungal activity against 42 days cultured Candida glabrata isolated from neutropenic subject with AML or MDS stool after 48 days of prophylaxis by broth microdilution method
Nakaseomyces glabratus [2] = experiment: Antifungal activity against 16 days cultured Candida glabrata isolated from invasive fungal infected subject blood after 17 days of prophylaxis by broth microdilution method
Pichia kudriavzevii = experiment: Antifungal activity against 8 days cultured Candida krusei isolated from neutropenic subject with AML or MDS stool after 12 days of prophylaxis by broth microdilution method
Nakaseomyces glabratus [3] = experiment: Antifungal activity against 3 days cultured Candida glabrata isolated from neutropenic subject with AML or MDS stool receiving antifungal therapy for 25 days after 3 days of prophylaxis by broth microdilution method
Nakaseomyces glabratus [4] = experiment: Antifungal activity against 43 days cultured Candida glabrata isolated from HSCT recipient with acute or chronic GVHD mouth receiving antifungal therapy for 168 days after 113 days of prophylaxis by broth microdilution method
Nakaseomyces glabratus [5] = experiment: Ratio of URA3 gene expression in Candida glabrata isolated from patient 975 receiving antifungal drug to URA3 gene expression in Candida glabrata isolated from patient 975 by RT-PCR analysis
Candida albicans [6] = experiment: Antifungal activity against Candida albicans isolated from HSCT recipients with acute or chronic GVHD receiving posaconazole by broth microdilution method
Candida albicans [7] = experiment: Antifungal activity against Candida albicans isolated from HSCT recipients with acute or chronic GVHD receiving posaconazole assessed as maximum MIC by broth microdilution method
Candida albicans [8] = experiment: Antifungal activity against Candida albicans isolated from HSCT recipient 301 with acute or chronic GVHD mouth after 114 days prophylaxis by broth microdilution method
Nakaseomyces glabratus [9] = experiment: Antifungal activity against Candida glabrata isolated from neutropenic subject 1318 with AML or MDS stool after 36 days prophylaxis by broth microdilution method
Nakaseomyces glabratus [10] = experiment: Antifungal activity against Candida glabrata isolated from HSCT recipient 975 with acute or chronic GVHD mouth after 112 days prophylaxis by broth microdilution method
Nakaseomyces glabratus [11] = experiment: Antifungal activity against Candida glabrata isolated from HSCT recipient 975 with acute or chronic GVHD mouth receiving antifungal drug after 112 days prophylaxis by broth microdilution method
Candida albicans [12] = experiment: Antifungal activity against Candida albicans isolated from HSCT recipient 031 with acute or chronic GVHD mouth receiving antifungal drug after 109 days prophylaxis by broth microdilution method
Candida albicans [13] = experiment: Antifungal activity against Candida albicans isolated from HSCT recipient 928 with acute or chronic GVHD mouth receiving antifungal drug after 112 days prophylaxis by broth microdilution method
Nakaseomyces glabratus [14] = experiment: Antifungal activity against Candida glabrata isolated from neutropenic subject 1331 with AML or MDS pharynx receiving antifungal drug after 21 days prophylaxis by broth microdilution method; details: 504 h
Nakaseomyces glabratus [15] = experiment: Antifungal activity against Candida glabrata isolated from HSCT recipient 491 with acute or chronic GVHD mouth after 112 days prophylaxis by broth microdilution method
Nakaseomyces glabratus [16] = experiment: Ratio of CDR1 gene expression in Candida glabrata isolated from patient 186 receiving antifungal drug to CDR1 gene expression in Candida glabrata isolated from patient 186 by RT-PCR analysis
Nakaseomyces glabratus [17] = experiment: Ratio of CDR2 gene expression in Candida glabrata isolated from patient 186 receiving antifungal drug to CDR2 gene expression in Candida glabrata isolated from patient 186 by RT-PCR analysis
Nakaseomyces glabratus [18] = experiment: Ratio of ERG11 gene expression in Candida glabrata isolated from patient 186 receiving antifungal drug to ERG11 gene expression in Candida glabrata isolated from patient 186 by RT-PCR analysis
Nakaseomyces glabratus [19] = experiment: Ratio of URA3 gene expression in Candida glabrata isolated from patient 186 receiving antifungal drug to URA3 gene expression in Candida glabrata isolated from patient 186 by RT-PCR analysis
Nakaseomyces glabratus [20] = experiment: Ratio of CDR1 gene expression in Candida glabrata isolated from patient 975 receiving antifungal drug to CDR1 gene expression in Candida glabrata isolated from patient 975 by RT-PCR analysis
Nakaseomyces glabratus [21] = experiment: Ratio of CDR2 gene expression in Candida glabrata isolated from patient 975 receiving antifungal drug to CDR2 gene expression in Candida glabrata isolated from patient 975 by RT-PCR analysis
Nakaseomyces glabratus [22] = experiment: Ratio of ERG11 gene expression in Candida glabrata isolated from patient 975 receiving antifungal drug to ERG11 gene expression in Candida glabrata isolated from patient 975 by RT-PCR analysis
Nakaseomyces glabratus [23] = experiment: Ratio of CDR1 gene expression in Candida glabrata isolated from patient 491 receiving antifungal drug to CDR1 gene expression in Candida glabrata isolated from patient 491 by RT-PCR analysis
Nakaseomyces glabratus [24] = experiment: Ratio of ERG11 gene expression in Candida glabrata isolated from patient 491 receiving antifungal drug to ERG11 gene expression in Candida glabrata isolated from patient 491 by RT-PCR analysis
Nakaseomyces glabratus [25] = experiment: Ratio of URA3 gene expression in Candida glabrata isolated from patient 491 receiving antifungal drug to URA3 gene expression in Candida glabrata isolated from patient 491 by RT-PCR analysis
Nakaseomyces glabratus [26] = experiment: Ratio of CDR1 gene expression in Candida glabrata isolated from patient 002 receiving antifungal drug to CDR1 gene expression in Candida glabrata isolated from patient 002 by RT-PCR analysis
Nakaseomyces glabratus [27] = experiment: Ratio of CDR2 gene expression in Candida glabrata isolated from patient 002 receiving antifungal drug to CDR2 gene expression in Candida glabrata isolated from patient 002 by RT-PCR analysis
Nakaseomyces glabratus [28] = experiment: Ratio of ERG11 gene expression in Candida glabrata isolated from patient 002 receiving antifungal drug to ERG11 gene expression in Candida glabrata isolated from patient 002 by RT-PCR analysis
Nakaseomyces glabratus [29] = experiment: Ratio of URA3 gene expression in Candida glabrata isolated from patient 002 receiving antifungal drug to URA3 gene expression in Candida glabrata isolated from patient 002 by RT-PCR analysis
Nakaseomyces glabratus [30] = experiment: Ratio of CDR1 gene expression in Candida glabrata isolated from patient 497 receiving antifungal drug to CDR1 gene expression in Candida glabrata isolated from patient 497 by RT-PCR analysis
Nakaseomyces glabratus [31] = experiment: Ratio of CDR2 gene expression in Candida glabrata isolated from patient 497 receiving antifungal drug to CDR2 gene expression in Candida glabrata isolated from patient 497 by RT-PCR analysis
Nakaseomyces glabratus [32] = experiment: Ratio of ERG11 gene expression in Candida glabrata isolated from patient 497 receiving antifungal drug to ERG11 gene expression in Candida glabrata isolated from patient 497 by RT-PCR analysis
Nakaseomyces glabratus [33] = experiment: Ratio of URA3 gene expression in Candida glabrata isolated from patient 497 receiving antifungal drug to URA3 gene expression in Candida glabrata isolated from patient 497 by RT-PCR analysis
Nakaseomyces glabratus [34] = experiment: Ratio of CDR1 gene expression in Candida glabrata isolated from patient 807 receiving antifungal drug to CDR1 gene expression in Candida glabrata isolated from patient 807 by RT-PCR analysis
Nakaseomyces glabratus [35] = experiment: Ratio of ERG11 gene expression in Candida glabrata isolated from patient 807 receiving antifungal drug to ERG11 gene expression in Candida glabrata isolated from patient 807 by RT-PCR analysis
Nakaseomyces glabratus [36] = experiment: Ratio of URA3 gene expression in Candida glabrata isolated from patient 807 receiving antifungal drug to URA3 gene expression in Candida glabrata isolated from patient 807 by RT-PCR analysis

SMILES: CC[C@@H]([C@H](C)O)n1ncn(-c2ccc(N3CCN(c4ccc(OC[C@@H]5CO[C@@](Cn6cncn6)(c6ccc(F)cc6F)C5)cc4)CC3)cc2)c1=O [POSACONAZOLE]
- MIC (Nakaseomyces glabratus [1]): 1 µg/mL (≈ 1.43 µM)
- MIC (Nakaseomyces glabratus [2]): > 8 µg/mL
- MIC (Pichia kudriavzevii): 0.125 µg/mL (≈ 0.178 µM)
- MIC (Nakaseomyces glabratus [3]): 0.5 µg/mL (≈ 0.713 µM)
- MIC (Nakaseomyces glabratus [4]): 2 µg/mL (≈ 2.85 µM)
- fold change (FC) (Nakaseomyces glabratus [5]): 1.2
- MIC50 (Candida albicans [6]): 0.03 µg/mL (≈ 0.0428 µM)
- MIC90 (Candida albicans [6]): 0.12 µg/mL (≈ 0.171 µM)
- MIC (Candida albicans [7]): 0.25 µg/mL
- MIC (Candida albicans [8]): < 0.015 µg/mL
- MIC (Nakaseomyces glabratus [9]): 0.5 µg/mL (≈ 0.713 µM)
- MIC (Nakaseomyces glabratus [10]): 0.25 µg/mL (≈ 0.357 µM)
- MIC (Nakaseomyces glabratus [11]): 4 µg/mL (≈ 5.71 µM)
- MIC (Candida albicans [12]): < 0.015 µg/mL
- MIC (Candida albicans [13]): > 8 µg/mL
- MIC (Nakaseomyces glabratus [14]): 8 µg/mL (≈ 11.4 µM)
- MIC (Nakaseomyces glabratus [15]): 0.25 µg/mL (≈ 0.357 µM)
- fold change (FC) (Nakaseomyces glabratus [16]): -1.5
- fold change (FC) (Nakaseomyces glabratus [17]): -1.45
- fold change (FC) (Nakaseomyces glabratus [18]): -1.4
- fold change (FC) (Nakaseomyces glabratus [19]): -1.4
- fold change (FC) (Nakaseomyces glabratus [20]): 2.25
- fold change (FC) (Nakaseomyces glabratus [21]): 1.5
- fold change (FC) (Nakaseomyces glabratus [22]): 1.6

SMILES: OC(Cn1cncn1)(Cn1cncn1)c1ccc(F)cc1F [FLUCONAZOLE]
- fold change (FC) (Nakaseomyces glabratus [23]): 4.5
- fold change (FC) (Nakaseomyces glabratus [24]): 1.2
- fold change (FC) (Nakaseomyces glabratus [25]): 1
- MIC (Nakaseomyces glabratus [1]): 8 µg/mL (≈ 26.1 µM)
- MIC (Pichia kudriavzevii): > 64 µg/mL
- MIC (Nakaseomyces glabratus [3]): 8 µg/mL (≈ 26.1 µM)
- MIC (Nakaseomyces glabratus [4]): 64 µg/mL (≈ 209 µM)
- fold change (FC) (Nakaseomyces glabratus [26]): 1.5
- fold change (FC) (Nakaseomyces glabratus [27]): -1.2
- fold change (FC) (Nakaseomyces glabratus [28]): -1.2
- fold change (FC) (Nakaseomyces glabratus [29]): -1.2
- fold change (FC) (Nakaseomyces glabratus [30]): 1.3
- fold change (FC) (Nakaseomyces glabratus [31]): -1.2
- fold change (FC) (Nakaseomyces glabratus [32]): -1.2
- fold change (FC) (Nakaseomyces glabratus [33]): -1.2
- fold change (FC) (Nakaseomyces glabratus [34]): 4.3
- fold change (FC) (Nakaseomyces glabratus [35]): 1.1
- fold change (FC) (Nakaseomyces glabratus [36]): 1.4
- MIC50 (Candida albicans [6]): 0.25 µg/mL (≈ 0.816 µM)
- MIC90 (Candida albicans [6]): 16 µg/mL (≈ 52.2 µM)
- MIC (Candida albicans [7]): 64 µg/mL
- MIC (Candida albicans [8]): < 0.125 µg/mL
- MIC (Nakaseomyces glabratus [9]): 4 µg/mL (≈ 13.1 µM)
- MIC (Nakaseomyces glabratus [10]): 4 µg/mL (≈ 13.1 µM)
- MIC (Nakaseomyces glabratus [11]): 128 µg/mL (≈ 418 µM)
- MIC (Candida albicans [12]): 128 µg/mL (≈ 418 µM)
- MIC (Candida albicans [13]): 128 µg/mL (≈ 418 µM)
- MIC (Nakaseomyces glabratus [14]): > 64 µg/mL

SMILES: CCC(C)n1ncn(-c2ccc(N3CCN(c4ccc(OCC5COC(Cn6cncn6)(c6ccc(Cl)cc6Cl)O5)cc4)CC3)cc2)c1=O (configuration not stated) [ITRACONAZOLE]
- MIC (Nakaseomyces glabratus [1]): 1 µg/mL (≈ 1.42 µM)
- MIC (Nakaseomyces glabratus [2]): > 8 µg/mL
- MIC (Pichia kudriavzevii): 0.25 µg/mL (≈ 0.354 µM)
- MIC (Nakaseomyces glabratus [3]): 1 µg/mL (≈ 1.42 µM)
- MIC (Nakaseomyces glabratus [4]): 2 µg/mL (≈ 2.83 µM)
- MIC50 (Candida albicans [6]): 0.03 µg/mL (≈ 0.0425 µM)
- MIC90 (Candida albicans [6]): 0.25 µg/mL (≈ 0.354 µM)
- MIC (Candida albicans [7]): 0.25 µg/mL
- MIC (Candida albicans [8]): < 0.015 µg/mL
- MIC (Nakaseomyces glabratus [9]): 0.25 µg/mL (≈ 0.354 µM)
- MIC (Nakaseomyces glabratus [10]): 0.25 µg/mL (≈ 0.354 µM)
- MIC (Nakaseomyces glabratus [11]): 8 µg/mL (≈ 11.3 µM)
- MIC (Candida albicans [12]): 0.06 µg/mL (≈ 0.085 µM)
- MIC (Candida albicans [13]): > 8 µg/mL
- MIC (Nakaseomyces glabratus [14]): 8 µg/mL (≈ 11.3 µM)
